This is an account of results in ChEMBL document CHEMBL1137405, “Structural basis for the structure-activity relationships of peroxisome proliferator-activated receptor agonists” (J Med Chem, 2006).

Assay [1] addresses T1, Peroxisome proliferator-activated receptor alpha (Homo sapiens) (UniProt Q07869).
T1 sequence (whole entry): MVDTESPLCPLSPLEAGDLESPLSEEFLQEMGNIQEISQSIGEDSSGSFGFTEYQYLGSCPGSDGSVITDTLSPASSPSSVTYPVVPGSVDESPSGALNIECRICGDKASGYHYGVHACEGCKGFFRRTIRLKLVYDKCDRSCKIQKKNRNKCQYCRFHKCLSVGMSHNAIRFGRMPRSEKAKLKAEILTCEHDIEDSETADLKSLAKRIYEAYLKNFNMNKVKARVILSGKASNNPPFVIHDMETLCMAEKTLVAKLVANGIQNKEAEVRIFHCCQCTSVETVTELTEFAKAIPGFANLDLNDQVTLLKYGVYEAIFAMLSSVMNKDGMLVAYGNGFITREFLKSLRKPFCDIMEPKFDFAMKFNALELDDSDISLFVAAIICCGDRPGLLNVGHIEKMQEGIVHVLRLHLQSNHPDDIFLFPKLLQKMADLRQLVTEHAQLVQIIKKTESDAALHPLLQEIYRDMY
Description: (§1) Activity at human PPAR alpha in Huh7 cells by transactivation assay. The assay is classed as cell-based. The note with it: Huh-7, filed as agonist.

Assay [2] addresses T2, Peroxisome proliferator-activated receptor alpha (Homo sapiens, UniProt Q07869).
T2 sequence (Q07869 whole entry): T1 sequence (whole entry)
Described as §1. The class given is cell-based, Huh-7.

Assay [3] deals with T3, Peroxisome proliferator-activated receptor delta (Homo sapiens, UniProt Q03181).
T3 sequence (Q03181 whole entry): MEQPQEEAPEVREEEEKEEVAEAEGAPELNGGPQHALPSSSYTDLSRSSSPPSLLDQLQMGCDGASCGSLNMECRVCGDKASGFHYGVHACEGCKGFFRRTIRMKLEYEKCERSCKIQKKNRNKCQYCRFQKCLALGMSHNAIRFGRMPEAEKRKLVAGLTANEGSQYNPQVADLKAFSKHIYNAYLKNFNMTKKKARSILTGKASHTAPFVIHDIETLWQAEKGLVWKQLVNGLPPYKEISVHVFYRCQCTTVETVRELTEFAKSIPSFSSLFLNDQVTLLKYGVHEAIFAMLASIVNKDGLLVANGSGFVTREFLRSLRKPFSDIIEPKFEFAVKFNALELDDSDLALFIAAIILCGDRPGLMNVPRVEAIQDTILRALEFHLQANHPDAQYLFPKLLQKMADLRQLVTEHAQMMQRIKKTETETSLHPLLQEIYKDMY
Description: Activity at human PPAR delta in Huh7 cells by transactivation assay. The assay is classed as cell-based, Huh-7.

Assay [4] addresses T4, Peroxisome proliferator-activated receptor gamma (Homo sapiens, UniProt P37231).
T4 sequence (P37231 whole entry): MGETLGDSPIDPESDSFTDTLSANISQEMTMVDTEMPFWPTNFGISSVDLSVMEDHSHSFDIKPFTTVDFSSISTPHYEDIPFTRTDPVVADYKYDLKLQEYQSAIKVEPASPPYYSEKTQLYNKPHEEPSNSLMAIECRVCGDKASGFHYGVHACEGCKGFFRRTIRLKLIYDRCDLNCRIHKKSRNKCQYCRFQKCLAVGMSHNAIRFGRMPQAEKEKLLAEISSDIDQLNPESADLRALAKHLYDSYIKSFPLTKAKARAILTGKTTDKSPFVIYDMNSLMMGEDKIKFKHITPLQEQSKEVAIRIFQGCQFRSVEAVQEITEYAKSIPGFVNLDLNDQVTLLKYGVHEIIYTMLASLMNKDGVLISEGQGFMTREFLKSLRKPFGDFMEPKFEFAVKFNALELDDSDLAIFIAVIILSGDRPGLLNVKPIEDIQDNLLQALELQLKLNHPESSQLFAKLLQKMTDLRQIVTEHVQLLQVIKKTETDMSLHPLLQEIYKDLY
The class given is cell-based, Huh-7.
Description: Activity at human PPAR gamma in Huh7 cells by transactivation assay

As for `CCCc1c(OCCCOc2ccc3c(ccn3CC(=O)O)c2)ccc2cc(C(=O)c3ccccc3)ccc12`, the Activity result in assay [1] is “Agonist”.

For the molecule `CCCc1c(OCCCn2ccc3c(OCC(=O)O)cccc32)ccc2cc(C(=O)c3ccccc3)ccc12`, the concentration giving a half-maximal response (EC50) in assay [2] is 206 nM; in assay [3], over 10000 nM; in assay [4] it was 4220 nM.

Take `CCCc1c(OCCCn2ccc3ccc(OC(C)(C)C(=O)O)cc32)ccc2cc(C(=O)c3ccccc3)ccc12`: the concentration giving a half-maximal response (EC50) in assay [2] came to 1100 nM; in assay [3], 4630 nM; in assay [4], 470 nM.

Regarding `CCCc1c(OCCCn2ccc3cc(OCC(=O)O)ccc32)ccc2cc(C(=O)c3ccccc3)ccc12`, the Activity entry in assay [1] was “Agonist”. The EC50 was 32 nM in assay [2], over 10000 nM in assay [3] and 2210 nM in assay [4].

On to `CCCc1c(OCCCn2ccc3ccc(OCC(=O)O)cc32)ccc2cc(C(=O)c3ccccc3)ccc12`, for which the EC50 was determined as 2080 nM in assay [2], 6980 nM in assay [3] and 3470 nM in assay [4].

With `CCCc1c(OCCCn2ccc3c(OC(C)(C)C(=O)O)cccc32)ccc2cc(C(=O)c3ccccc3)ccc12`, the Activity result in assay [1] was “Agonist”. In addition, the EC50 amounted to 282 nM in assay [2], 4300 nM in assay [3] and 210 nM in assay [4].

Regarding `CCCc1c(OCCCn2ccc3cc(OC(C)(C)C(=O)O)ccc32)ccc2cc(C(=O)c3ccccc3)ccc12`, the Activity entry in assay [1] was “Agonist”. Also, the 50% effective concentration (EC50) in assay [2] was 123 nM; in assay [3], over 10000 nM; in assay [4], 650 nM.

One may read the EC50 as the concentration needed to bring the measured effect to its halfway point. A high value points to a need for much substance.
